# Laboratory results from patent US20230124589A1, “Ivacaftor Glycosides, Methods Of Making, And Uses Thereof In Treating Cystic Fibrosis” (DoubleRainbow Biosciences Inc., priority 2020, published 2023).
# Key:
# [1] = background statement, no method given; cited from earlier work
# [2] = Water solubility (excess compound suspended in distilled water, supernatant measured by HPLC); assay type: physicochemical
# Protocol: The water solubility of ivacaftor and ivacaftor-17-O-D-glucoside was investigated by suspending excess amounts of the two compounds in 200 μl of distilled water in a microcentrifuge tube at 25° C. for 12 h. Afterwards, each sample was centrifuged at 12,000×g for 20 min. The supernatant of each sample was then filtered through a 0.45-μm membrane filter and the concentration of the compound in the supernatant, which is defined as the water-soluble component, was measured by its absorbance at 300 nm using HPLC, and its absolute solubility was calculated in reference to the concentration-absorbance standard curve.
"solubility at 12 h ([2]; 25 °C, water, thermodynamic from solid) [µg/mL]","water solubility, times higher than ivacaftor ([2]; distilled water, 25° C., 12 h, relative to ivacaftor)","water solubility ([2]; distilled water, 25° C., 12 h, supernatant filtered 0.45-μm, absorbance at 300 nm by HPLC)",SMILES,solubility in water [1] [µg/mL]
0.1,–,–,"CC(C)(C)c1cc(C(C)(C)C)c(NC(=O)c2c[nH]c3ccccc3c2=O)cc1O [ivacaftor, Ivacaftor]",< 1
–,"14,550 times","1,455 mg/L",CC(C)(C)c1cc(C(C)(C)C)c(OC2O[C@H](CO)[C@@H](O)[C@H](O)[C@H]2O)cc1NC(=O)c1c[nH]c2ccccc2c1=O (stereo partly drawn) [ivacaftor-17-O-D-glucoside],–
